Measurements: patent US5366983A, “Use of quaternary ammonium compounds to remove salmonella contamination from meat products” (The Board of Trustees of The University of Arkansas, priority 1992, dated 1994)
Like-named read-outs stand apart in the source and are kept apart here.

Experiments:
[1] = system: Salmonella typhimurium ATCC 14028 attached to human buccal epithelial cells; assay: microbe, parasite or virus in culture; type: cell-based; details: Table A-3
Description: Additional studies on the detachment of Salmonella typhimurium from human buccal epithelial cells were conducted.
S. typhimurium ATCC 14028 was grown in nutrient broth (BBL Microbiology system, Cockeysville, Md.) for 16 hours at 37° C. The cells were centrifuged and washed twice with 0.008 M phosphate buffered saline (PBS, at pH 7.2) at 4500 rpm for 10 minutes. The last suspension was diluted in PBS to obtain a cell concentration 0.5 to 1×10^9 cells/ml using spectrophotometric measurement. Human epithelial cells were obtained by swabbing the buccal surface of a healthy, nonsmoking donor. […] The number of living cells was estimated and the suspension was diluted to 0.5 to 1×10^5 cells/ml.
The suspension of the human buccal cells was mixed with an equal volume of the bacterial suspension (3.0 ml), or PBS (0.8 ml) in 10 ml Erlenmeyer flasks. Contact was allowed for 1.5 hours at 35° C. under agitation. After incubation, 1.0 ml of each suspension was transferred into an Eppendorff vial, centrifuged at 3000 rpm for 10 minutes, and washed with PBS. The cells were treated with 1.0 ml PBS or 1.0 ml of the test chemical solution. Treatment was performed by suspending, gently vortexing, and centrifuging at 1500 rpm for 10 minutes. After the treatment, the cells were washed and placed on microscopic slides for examination.
EC50 represents the inverse measurement of the potency of a compound. EC50 values were determined by a nonlinear regression of the detachment effect versus the cationic surfactant concentration data from Table A-3.

[2] = system: Salmonella typhimurium on chicken skin; assay: Effect of surfactants on Salmonella attached to chicken skin, drumsticks (Tables F1-F4)
adherent S. typhimurium = details: 10 minutes
[3] = system: Salmonella typhimurium TA98; assay: Salmonella reversion assay after heating at 205° C., TA98; type: cell-based; details: for Revertants/plate: heated at 205° C.
Description: Test strains TA98 and TA100 were used. Again, mutagenicities were determined both in the absence and in the presence of the mammalian liver S9 activating system.
A response that was two times that of the solvent control was considered a positive response.

CCCCCCCCCCCCCCCC[n+]1ccccc1 [CPC, cetylpyridinium chloride]
adherence, mean value of attached bacteria ([1]; 2.5 ug/ml): 73 ± 55
adherence, mean value of attached bacteria ([1]; 5 ug/ml): 42 ± 22
adherence, mean value of attached bacteria ([1]; 10 ug/ml): 28 ± 10
Enrichment, chicken legs out of ten ([2]; 0.1%, 4° C.): 8/10
Rinse H2O ([2]; 0.1%, 4° C.): 0 CFU/ml
Surfactant Solution ([2]; 0.1%, 4° C.): 0 CFU/ml
Swabs, chicken legs producing the notated number of colonies ([2]; 0.1%, 4° C.): 8/10
Swabs, colonies ([2]; 0.1%, 4° C.): + (1-10)
Wash H2O, chicken legs producing the notated number of colonies ([2]; 0.1%, 4° C.): 8/10
Wash H2O, colonies ([2]; 0.1%, 4° C.): + (1-10)
Enrichment, chicken legs out of ten ([2]; 0.1%, 25° C.): 0/10
Rinse H2O ([2]; 0.1%, 25° C.): 0 CFU/ml
Surfactant Solution ([2]; 0.1%, 25° C.): 0 CFU/ml
Swabs, chicken legs producing the notated number of colonies ([2]; 0.1%, 25° C.): 7/10
Swabs, colonies ([2]; 0.1%, 25° C.): + (1-10)
Wash H2O, chicken legs producing the notated number of colonies ([2]; 0.1%, 25° C.): 8/10
Wash H2O, colonies ([2]; 0.1%, 25° C.): ++ (11-100)
Enrichment, chicken legs out of ten ([2]; 0.5%, 4° C.): 9/10
Rinse H2O ([2]; 0.5%, 4° C.): 0 CFU/ml
Surfactant Solution ([2]; 0.5%, 4° C.): 0 CFU/ml
Swabs, chicken legs producing the notated number of colonies ([2]; 0.5%, 4° C.): 9/10
Swabs, colonies ([2]; 0.5%, 4° C.): + (1-10)
Wash H2O, chicken legs producing the notated number of colonies ([2]; 0.5%, 4° C.): 7/10
Wash H2O, colonies ([2]; 0.5%, 4° C.): + (1-10)
Enrichment, chicken legs out of ten ([2]; 1.0%, 4° C.): 5/10
Rinse H2O ([2]; 1.0%, 4° C.): 0 CFU/ml
Surfactant Solution ([2]; 1.0%, 4° C.): 0 CFU/ml
Swabs, chicken legs producing the notated number of colonies ([2]; 1.0%, 4° C.): 5/10
Swabs, colonies ([2]; 1.0%, 4° C.): + (1-10)
Wash H2O, chicken legs producing the notated number of colonies ([2]; 1.0%, 4° C.): 9/10
Wash H2O, colonies ([2]; 1.0%, 4° C.): + (1-10)
Enrichment, chicken legs out of ten ([2]; .01%, 25° C.): 10/10
Rinse H2O ([2]; .01%, 25° C.): + (1-10)
Surfactant Solution ([2]; .01%, 25° C.): 0 CFU/ml
Swabs, chicken legs producing the notated number of colonies ([2]; .01%, 25° C.): 9/10
Swabs, colonies ([2]; .01%, 25° C.): ++ (11-100)
Wash H2O, chicken legs producing the notated number of colonies ([2]; .01%, 25° C.): 10/10
Wash H2O, colonies ([2]; .01%, 25° C.): +++ (101-300)
Enrichment, chicken legs out of ten ([2]; .05%, 25° C.): 7/10
Rinse H2O ([2]; .05%, 25° C.): 0 CFU/ml
Surfactant Solution ([2]; .05%, 25° C.): 0 CFU/ml
Swabs, chicken legs producing the notated number of colonies ([2]; .05%, 25° C.): 9/10
Swabs, colonies ([2]; .05%, 25° C.): + (1-10)
Wash H2O, chicken legs producing the notated number of colonies ([2]; .05%, 25° C.): 10/10
Wash H2O, colonies ([2]; .05%, 25° C.): ++ (11-100)
Colony Count (±SD) (adherent S. typhimurium; 5 μg/ml): 2.52 ± 2.69 × 10^3
Colony Count (±SD) (adherent S. typhimurium; 10 μg/ml): 4.40 ± 5.68 × 10^2
Colony Count (±SD) (adherent S. typhimurium; 50 μg/ml): 2.0 ± 4.5 × 10^1
Revertants/plate ([3]; TA98, +S9, 0.1 μg/plate): 26 ± 4 Revertants/plate
Revertants/plate ([3]; TA98, +S9, 1.0 μg/plate): 20 ± 1 Revertants/plate
Revertants/plate ([3]; TA98, +S9, 5.0 μg/plate): 25 ± 4 Revertants/plate
Revertants/plate ([3]; TA98, +S9, 10.0 μg/plate): 22 ± 3 Revertants/plate
Revertants/plate ([3]; TA98, -S9, 0.1 μg/plate): 16 ± 3 Revertants/plate
Revertants/plate ([3]; TA98, -S9, 1.0 μg/plate): 20 ± 5 Revertants/plate
Revertants/plate ([3]; TA98, -S9, 5.0 μg/plate): 22 ± 3 Revertants/plate
Revertants/plate ([3]; TA98, -S9, 10.0 μg/plate): 25 ± 3 Revertants/plate
mutagenicity after heating in vegetable oil (in words) ([3]; TA98, absence or presence of S9, all concentrations tested): did not produce substances which are mutagenic
